Source: ChEMBL document CHEMBL1147078, “Triptolide is a traditional Chinese medicine-derived inhibitor of polycystic kidney disease” (Proc Natl Acad Sci U S A, 2007)
Activity calls are given as the source filed them. No cut-off for these calls is given here.

Columns and labels:
Mus musculus [1] = species on record: Mus musculus; test: Growth inhibition of PC2 expressing mouse Pkd2+/- cells as cell death at 100 nM after 24 hrs; format: functional
[2] = Growth inhibition of mouse Pkd2-/- PC2-null cells assessed as cell viability at 100 nM after 24 hrs; format: functional; conditions: read-out: Activity
Mus musculus [3] = test: Effect on Pkd1+/- and Pkd1+/- inter crossed mouse assessed as decrease in kidney cyst burden in […] genotypic embryos at 0.07 mg/kg, ip from E10.5 stage to untill birth relative to control; format: functional, organism-based; parameters: dose 0.07 mg/kg
[4] = Growth inhibition of mouse Pkd2-/- PC2-null cells assessed as cell death at 100 nM after 48 hrs; format: functional; parameters: scale not given: the % may be the effect or the level left
[5] = Growth inhibition of PC2 reconstituted mouse Pkd2-/- cells assessed as cell death at 100 nM after 24 hrs; format: functional; parameters: scale not given: the % may be the effect or the level left
Mus musculus [6] = species on record: Mus musculus; test: Induction of cell growth arrest in mouse Pkd1-/- cells in presence of calcium; format: functional, cell-based
Mus musculus [7] = species on record: Mus musculus; test: Increase in p21CIP/WAF expression in mouse Pkd1-/- cells at 100 nM after 96 hrs by Western blot analysis; format: functional, cell-based
Mus musculus [8] = species on record: Mus musculus; test: Increase in PC2 dependent calcium release in mouse Pkd1+/- cells at 100 nM; format: functional, cell-based
Mus musculus [9] = species on record: Mus musculus; test: Increase in PC2 dependent calcium release in mouse Pkd1-/- cells at 100 nM; format: functional, cell-based
Mus musculus [10] = species on record: Mus musculus; test: Increase in calcium release in mouse Pkd2-/- cells at 100 nM; format: functional, cell-based
Pkd = test: Increase in calcium response in mouse Pkd cells at […]; format: functional, cell-based
Mus musculus [11] = species on record: Mus musculus; test: Increase in calcium release in mouse Pkd1-/- cells at 50 uM in presence of RyR antagonist dantrolene; format: functional, cell-based
Mus musculus [12] = test: Toxicity in C57BL/6 mouse embryos at >=0.1 mg/kg/day, ip; format: organism-based; conditions: in vivo
Mus musculus [13] = test: Toxicity in C57BL/6 mouse embryos at […], ip; format: organism-based; parameters: route intraperitoneal; conditions: in vivo

CC(C)[C@]12O[C@H]1[C@@H]1O[C@]13[C@]1(O[C@H]1C[C@H]1C4=C(CC[C@@]13C)C(=O)OC4)[C@@H]2O [TRIPTOLIDE]
Activity (Mus musculus [1]): Active | viability at 0.1 µM [2]: > 90% | Activity (Mus musculus [3]): Active | Activity [4]: >50% | Activity [5]: >80% | Activity (Mus musculus [6]): Active | Activity (Mus musculus [7]): Active | Activity (Mus musculus [8]): Active | Activity (Mus musculus [9]): Active | Activity (Mus musculus [10]): inactive | Activity (Pkd): inactive | Activity (Mus musculus [11]): Active | Activity (Mus musculus [12]): Toxic | Activity (Mus musculus [13]): Non-toxic
